Source: patent publication US6500842B1, “8-hydroxy-7-substituted quinolines as anti-viral agents” (Pharmacia & Upjohn Company, priority 1996, dated 2002)
Values joined by “and” are separate entries in the source; they are usually repeats but may differ in a detail not shown here. Equal values may be shown once. Read-outs that look alike come from different tables or passages of the source.

Key:
[1] = biological target: T1, CMV polymerase (Human cytomegalovirus, UniProt P08546); experiment: modified version of the HCMV polymerase assay (100% DMSO dilution, DTT, different enzyme lot); assay type: biochemical
T1 construct: made in house; host or cells: recombinant baculovirus-infected SF-9 cells
T1 sequence (P08546 whole entry): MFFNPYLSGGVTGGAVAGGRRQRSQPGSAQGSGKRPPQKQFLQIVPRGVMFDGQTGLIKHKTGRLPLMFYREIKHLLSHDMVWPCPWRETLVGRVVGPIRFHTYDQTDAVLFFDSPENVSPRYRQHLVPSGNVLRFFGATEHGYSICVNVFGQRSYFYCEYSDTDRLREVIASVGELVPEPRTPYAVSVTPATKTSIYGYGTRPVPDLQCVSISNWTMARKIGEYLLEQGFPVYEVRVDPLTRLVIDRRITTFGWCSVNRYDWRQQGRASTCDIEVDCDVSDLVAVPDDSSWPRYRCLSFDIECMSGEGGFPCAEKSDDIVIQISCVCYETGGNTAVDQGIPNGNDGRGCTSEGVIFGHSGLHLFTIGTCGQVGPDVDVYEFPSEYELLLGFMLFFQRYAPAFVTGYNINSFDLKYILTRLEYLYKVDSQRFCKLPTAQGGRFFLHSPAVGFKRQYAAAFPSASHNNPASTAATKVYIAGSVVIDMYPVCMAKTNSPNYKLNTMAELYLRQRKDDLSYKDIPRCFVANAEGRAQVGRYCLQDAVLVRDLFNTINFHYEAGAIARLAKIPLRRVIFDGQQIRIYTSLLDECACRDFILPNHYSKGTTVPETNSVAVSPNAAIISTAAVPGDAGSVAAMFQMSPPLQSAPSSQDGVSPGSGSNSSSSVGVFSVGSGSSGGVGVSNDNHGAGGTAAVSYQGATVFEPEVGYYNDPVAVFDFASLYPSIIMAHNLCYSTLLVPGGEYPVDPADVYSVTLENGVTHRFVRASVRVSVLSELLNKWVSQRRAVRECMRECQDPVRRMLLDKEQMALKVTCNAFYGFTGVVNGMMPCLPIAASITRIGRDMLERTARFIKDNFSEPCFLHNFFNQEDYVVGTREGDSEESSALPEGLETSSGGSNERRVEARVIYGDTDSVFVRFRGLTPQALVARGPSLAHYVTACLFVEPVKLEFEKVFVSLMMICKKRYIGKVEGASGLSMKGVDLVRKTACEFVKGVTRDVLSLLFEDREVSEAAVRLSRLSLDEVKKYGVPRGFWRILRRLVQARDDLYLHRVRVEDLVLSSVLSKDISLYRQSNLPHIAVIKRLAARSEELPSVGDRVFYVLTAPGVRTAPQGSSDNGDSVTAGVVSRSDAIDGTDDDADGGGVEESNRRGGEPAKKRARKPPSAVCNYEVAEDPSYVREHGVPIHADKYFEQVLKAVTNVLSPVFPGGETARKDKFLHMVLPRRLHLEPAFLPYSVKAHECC
Procedure: (§1) The HCMV polymerase assay is performed using a scintillation proximity assay (SPA) as described in several references, such as N. D. Cook, et al., Pharmaceutical Manufacturing International, pages 49-53 (1992); K. Takeuchi, Laboratory Practice, September issue (1992); U.S. Pat. No. 4,568,649 (1986); which are incorporated by reference herein. Reactions are performed in 96-well plates. The assay is conducted in 100 μl volume with 5.4 mM HEPES (pH 7.5), 11.7 mM KCl, 4.5 mM MgCl2, 0.36 mg/ml BSA, and 90 nM ^3H-dTTP. Assays are run with and without CHAPS, (3-[(3-Cholamidopropyl)-dimethylammonio]-1-propane-sulfonate) at a final concentration of 2 mM. HCMV is diluted in enzyme dilution buffer containing 50% glycerol, 250 mM NaCl, 10 mM HEPES (pH 7.5), 100 pg/ml BSA, and 0.01% sodium azide. The HCMV polymerase, which is expressed in recombinant baculovirus-infected SF-9 cells and purified according to literature procedures, is added at 10% (or 10 μl) of the final reaction volume, i.e., 100 μl. Compounds are diluted in 50% DMSO and 10 μl are added to each well. Control wells contain an equivalent concentration of DMSO. Unless noted otherwise, reactions are initiated via the addition of 6 nM biotinylated poly(dA)-oligo(dT) template/primer to reaction mixtures containing the enzyme, substrate, and compounds of interest. Plates are incubated in a 25° C. of 37° C. H2O bath and terminated via the addition of 40 μl/reaction of 0.5 M EDTA (pH 8) per well. Reactions are terminated within the time-frame during which substrate incorporation is linear and varied depending upon the enzyme and conditions used, i.e., 30 min. for HCMV polymerase. Ten μl of streptavidin-SPA beads (20 mg/ml in PBS/10% glycerol) are added following termination of the reaction. Plates are incubated 10 min. at 37° C., then equilibrated to room temperature, and counted on a Packard Topcount. Linear regressions are performed and IC50's are calculated using computer software. Results of the testing of compounds of the present invention in this assay are shown in Tables 1, 2, 5, 9, 10, 11, 13 (except for the last compound which was tested under modified conditions) and 14 below.
A modified version of the above HCMV polymerase assay is performed as described above, but with the following changes: Compounds are diluted in 100% DMSO until final dilution into assay buffer. In the previous assay, compounds are diluted in 50% DMSO. 4.5 mM dithiotherotol (DTT) is added to the polymerase buffer.

[2] = biological target: T2, HCMV polymerase (Human cytomegalovirus, UniProt P08546); experiment: HCMV polymerase assay (scintillation proximity assay); assay type: biochemical
T2 construct: made in house; host or cells: recombinant baculovirus-infected SF-9 cells
T2 sequence (P08546 whole entry): as above
Procedure: as §1

[3] = pol type CMV, Table 1, read-out: CMV pol Assay IC50
[4] = pol type CMV, Table 2, read-out: IC50
[5] = Table 5, pol type CMV, read-out: IC50
[6] = Polymerase CMV, Table 7, read-out: Antiviral Selective Polymerase IC50 Values - IC50
[7] = Table 10, CMV pol Assay, read-out: IC50
[8] = Table 11, read-out: CMV pol Assay IC50

Work on `O=C(NCCCc1ccccc1)c1ccc2ccc(/C=C/c3ccccc3)nc2c1O` yielded an IC50 ([1]; Table 13, last compound, tested under modified conditions, read-out: IC50) of 5.1 µM.
Work on `CC(C)C[C@H](Nc1nnc(NC(=O)c2ccc3cccnc3c2O)s1)C(=O)OC(C)(C)C.O` (hydrate or solvate) yielded a melting point of 214 to 215 °C.
`CSCC[C@H](Nc1nnc(NC(=O)c2ccc3cccnc3c2O)s1)C(=O)OC(C)(C)C.O` (hydrate or solvate) showed a melting point of 204 to 205 °C.
Work on `O=C(NCc1ccc(Cl)cc1)c1ccc2cccnc2c1O` [Example 1, N-[(4-Chlorophenyl)methyl]-8-hydroxy-7-quinolinecarboxamide] yielded an IC50 [2, 3] of 10.2 µM.
With `O=C(NC1=NC(=O)C(c2ccc(Cl)cc2)S1)c1cc(Br)c2cccnc2c1O` (stereo not shown) [Example 6, 5-Bromo-N-[5-(4-chlorophenyl)-4,5-dihydro-4-oxo-2-thiazolyl]-8-hydroxy-7-quinolinecarboxamide] the IC50 [2, 3] was 4.1 µM.
Work on `O=C(Nc1nnc(-c2ccc(Cl)cc2)s1)c1ccc2cccnc2c1O` [Example 14, N-[5-(4-Chlorophenyl)-1,3,4-thiadiazol-2-yl]-8-hydroxy-7-quinolinecarboxamide] yielded an IC50 [2, 3] of 23.4 µM.
For `O=S(=O)(NCc1ccccc1)c1cc(Cl)c2cccnc2c1O` [Example 22, 5-Chloro-8-hydrxoy-N-(phenylmehtyl)-7-quinolinesulfonamide], the “% Inhib” value ([2]; Conc 1.00e−004 M, Table 2) was 98.2% and 99.7%, the “% Inhib” value ([2]; Conc 1.30e−005 M, Table 2) was 68.9% and 78.3% and the “% Inhib” value ([2]; Conc 2.50e−005 M, Table 2) was 90.7% and 95.2%. For the same molecule, the “% Inhib” value ([2]; Conc 5.00e−005 M, Table 2) was 96.7% and 98.6%, the “% Inhib” value ([2]; Conc 6.25e−006 M, Table 2) was 33.3% and 51.5% and the IC50 [2, 4] was 8.6 µM and 4.5 µM.
Work on `O=S(=O)(NCc1ccccc1)c1cc(Br)c2cccnc2c1O` [Example 24, 5-Bromo-8-hydroxy-N-(phenylmethyl)-7-quinolinesulfonamide] yielded a melting point of 191 to 192 °C.
With `Cc1ccc2c(Cl)cc(S(=O)(=O)NCc3ccc(F)cc3)c(O)c2n1` [Example 30] the “% Inhib” value ([2]; Conc 1.00e−004 M, Table 2) was 97%, the “% Inhib” value ([2]; Conc 1.30e−005 M, Table 2) was 73.4% and the “% Inhib” value ([2]; Conc 2.50e−005 M, Table 2) was 87.5%. For the same molecule, the “% Inhib” value ([2]; Conc 3.13e−006 M, Table 2) was 42.6%, the “% Inhib” value ([2]; Conc 5.00e−005 M, Table 2) was 95.4% and the “% Inhib” value ([2]; Conc 6.25e−006 M, Table 2) was 59.9%. It also gave an IC50 [2, 4] of 4.3 µM.
In the case of `Cc1ccc2c(Cl)cc(S(=O)(=O)NCc3cccc4ccccc34)c(O)c2n1` [Example 31, 5-Chloro-8-hydroxy-2-methyl-N-(1-naphthalenylmethyl)-7-quinolinesulfonamide], the “% Inhib” value ([2]; Conc 1.00e−004 M, Table 2) is reported as 97.3%, the “% Inhib” value ([2]; Conc 1.00e−005 M, Table 2) is reported as 88.2% and the “% Inhib” value ([2]; Conc 1.25e−006 M, Table 2) is reported as 22.7%. The “% Inhib” value ([2]; Conc 1.30e−005 M, Table 2) was 97.3%, the “% Inhib” value ([2]; Conc 2.50e−005 M, Table 2) was 97.8% and the “% Inhib” value ([2]; Conc 2.50e−006 M, Table 2) was 38.5%. For the same molecule, the “% Inhib” value ([2]; Conc 3.13e−006 M, Table 2) was 82.9%, the “% Inhib” value ([2]; Conc 3.13e−007 M, Table 2) was −7.9% and the “% Inhib” value ([2]; Conc 5.00e−005 M, Table 2) was 97.8%. For the same molecule, the “% Inhib” value ([2]; Conc 5.00e−006 M, Table 2) was 55%, the “% Inhib” value ([2]; Conc 6.25e−006 M, Table 2) was 95% and the “% Inhib” value ([2]; Conc 6.25e−007 M, Table 2) was 20%. The IC50 [2, 4] was < 3.1 µM and 3.7 µM.
Molecule `Cc1ccc2c(Cl)cc(S(=O)(=O)NCC3CCCCC3)c(O)c2n1` [Example 32, 5-Chloro-N-(cyclohexylmethyl)-8-hydroxy-2-methyl-7-quinolinesulfonamide] has a melting point of 113 to 115 °C.
In the case of `CCCCCCCNC(=O)c1ccc2ccc(/C=C/c3ccccc3)nc2c1O` [Example 49, N-Heptyl-8-hydroxy-2-(2-phenylethenyl)-7-quinolinecarboxamide], the IC50 [2, 5] is reported as < 3.1 µM and 0.6 µM.
`CCCCCCCNC(=O)c1ccc2ccc(C(F)(F)F)nc2c1O` [Example 56, N-Heptyl-8-hydroxy-2-(trifluoromethyl)-7-quinolinecarboxamide] gave a melting point of 97 to 99 °C.
With `O=C(NCc1ccc(Cl)cc1)c1ccc2ccc(/C=C/c3ccco3)nc2c1O` [Example 57, N-[(4-Chlorophenyl)methyl]-2-[2-(2-furyl)ethenyl]-8-hydroxy-7-quinolinecarboxamide] the IC50 [2, 5] was 8 µM.
In the case of `Cc1ccc2c(Cl)cc(S(=O)(=O)NCCc3c[nH]c4ccccc34)c(O)c2n1` [Example 64], the “% Inhibition” value ([1]; Concentration 3.13 μM, Table 6) is reported as 16%, the “% Inhibition” value ([1]; Concentration 6.25 μM, Table 6) is reported as 25% and the “% Inhibition” value ([1]; Concentration 12.5 μM, Table 6) is reported as 25%. The “% Inhibition” value ([1]; Concentration 25 μM, Table 6) was 46%, the “% Inhibition” value ([1]; Concentration 50 μM, Table 6) was 75% and the “% Inhibition” value ([1]; Concentration 100 μM, Table 6) was 58%. For the same molecule, the “% Inhibition” value ([1]; Concentration 200 μM, Table 6) was 84% and the IC50 ([1]; Table 6, read-out: IC50) was 29.8 µM.
For `O=S(=O)(NCc1ccccc1)c1cc(F)c2cccnc2c1O` [Example 67, 5-Flouro-8-hydroxy-N-(phenylmethyl)-7-quinolinesulfonamide], the “% Inhibition” value ([1]; Concentration 3.13 μM, Table 6) was 13%, the “% Inhibition” value ([1]; Concentration 6.25 μM, Table 6) was 23% and the “% Inhibition” value ([1]; Concentration 12.5 μM, Table 6) was 25%. The “% Inhibition” value ([1]; Concentration 25 μM, Table 6) was 41%, the “% Inhibition” value ([1]; Concentration 50 μM, Table 6) was 76% and the “% Inhibition” value ([1]; Concentration 100 μM, Table 6) was 86%. For the same molecule, the “% Inhibition” value ([1]; Concentration 200 μM, Table 6) was 94% and the IC50 ([1]; Table 6, read-out: IC50) was 23.6 µM.
Work on `Cc1ccc2c(Cl)cc(C(=O)NCc3ccc(Cl)cc3)c(O)c2n1` [Example 68, 5-Chloro-N-[(4-chlorophenyl)methyl]-8-hydroxy-2-methyl-7-quinolinecarboxamide] yielded a melting point of 128 to 130 °C.
Molecule `Cc1ccc2c(Cl)cc(C(=O)NCCCc3ccccc3)c(O)c2n1` [Example 69, 5-chloro-8-hydroxy-2-methyl-N-(3-phenylpropyl)-7-quinolinecarboxamide] has a melting point of 109 to 111 °C.
With `Cc1ccc2c(Cl)cc(C(=O)NCCSc3ccccc3)c(O)c2n1` [Example 70, 5-chloro-8-hydroxy-2-methyl-N-[(2-phenylthio)ethyl]-7-quinolinecarboxamide] the melting point was 131 to 134 °C.
In the case of `CC(C)c1ccc(S(=O)(=O)NCCCCCNC(=O)c2ccc3cccnc3c2O)cc1` [Example 71], the melting point is reported as 106 to 108 °C.
In the case of `N#CCNC(=O)c1ccc2cccnc2c1O` [Example 72, N-(cyanomethyl)-8-hydroxy-7-quinolinecarboxamide], the melting point is reported as 206 to 208 °C (dec.).
For `COc1ccc(CCc2ccc3ccc(C(=O)NCC(O)c4ccccc4)c(O)c3n2)cc1` (stereo not shown) [Example 73, 8-hydroxy-N-(2-hydroxy-2-phenylethyl)-2-[2-(4-methoxyphenyl)ethyl]-7-quinolinecarboxamide], the melting point was 69 to 72 °C.
Work on `O=C(Nc1cc(C(F)(F)F)ccc1Cl)c1ccc2cccnc2c1O` [Example 164, N-[2-Chloro-5-(trifluoromethyl)phenyl]-8-hydroxy-7-quinolinecarboxamide] yielded a melting point of 210 to 211 °C.
Work on `Cc1ccc(F)cc1NC(=O)c1ccc2cccnc2c1O` [Example 165, N-(5-Fluoro-2-methylphenyl)-8-hydroxy-7-quinolinecarboxamide] yielded a melting point of 209 to 210 °C.
For `Cc1ccc2c(Cl)cc(C(=O)NCCCc3ccccc3)c(O)c2n1` [drawing 126], the IC50 [1, 6] was 9.7 µM and 9.4 µM.
Work on `Cc1ccc2c(Cl)cc(C(=O)NCCSc3ccccc3)c(O)c2n1` [drawing 127] yielded an IC50 [1, 6] of 42.8 µM.
`CC(C)c1ccc(S(=O)(=O)NCCCCCNC(=O)c2ccc3cccnc3c2O)cc1` [drawing 128] gave an IC50 [1, 6] of under 3.1 µM.
In the case of `COc1ccc(CCc2ccc3ccc(C(=O)NCC(O)c4ccccc4)c(O)c3n2)cc1` (stereo not shown) [drawing 129], the IC50 [1, 6] is reported as 13.3 µM.
In the case of `O=C(NCc1ccc(Cl)cc1)c1ccc2cccnc2c1O` [drawing 169], the IC50 ([2]; Table 9, read-out: CMV pol Assay- IC50) is reported as 8.1 µM.
In the case of `N#Cc1ccc(NC(=O)c2ccc3cccnc3c2O)cc1` [drawing 210], the IC50 [2, 7] is reported as over 100 µM.
`O=C(Nc1cc(C(F)(F)F)ccc1Cl)c1ccc2cccnc2c1O` [drawing 221] showed an IC50 [2, 7] of 14 µM.
With `Cc1ccc(F)cc1NC(=O)c1ccc2cccnc2c1O` [drawing 222] the IC50 [2, 7] was 14.7 µM.
Work on `Cc1ccc(NC(=O)c2ccc3cccnc3c2O)c(C)c1` [drawing 223] yielded an IC50 [2, 7] of 22.4 µM.
In the case of `Cc1cccc(NC(=O)c2ccc3cccnc3c2O)c1` [drawing 224], the IC50 [2, 7] is reported as 12.2 µM.
For `Cc1ccc(NC(=O)c2ccc3cccnc3c2O)c(C)c1` [drawing 279], the IC50 [2, 7] was 8.1 µM.
Molecule `Cc1ccc(F)cc1NC(=O)c1ccc2cccnc2c1O` [drawing 282] has an IC50 [2, 7] of 6.6 µM.
Molecule `Cc1cccc(NC(=O)c2ccc3cccnc3c2O)c1` [drawing 284] has an IC50 [2, 7] of 7 µM.
`O=C(Nc1nnc(C(F)(F)F)s1)c1ccc2cccnc2c1O` [drawing 303] showed an IC50 [2, 8] of 71 µM.
In the case of `O=C(Nc1nnc(Br)s1)c1ccc2cccnc2c1O` [drawing 304], the IC50 [2, 8] is reported as 93.2 µM.
